Assay results as given in US20250215029A1 (Recludix Pharma, Inc., priority 2022, published 2025).

target: T1, pY705-STAT3 in PBMC (Homo sapiens, UniProt P40763); assay: MSD-pSTAT-PBMC Assay (pSTAT3, IL-6 stimulated); type: cell-based; conditions: PBMC, compound 3 hrs, then 10 ng/mL IL-6 for 10 min; Table 115; read-out: STAT3
T1 construct: Cryopreserved Peripheral Blood Mononuclear Cells (PBMC) are from AllCells; host or cells: cryopreserved PBMC
Outline: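 Cells are preincubated with compound for 3 hrs, then stimulated for 10 min, IL-4 at 1 ng/mL driving STAT6 phosphorylation and IL-6 at 10 ng/mL driving STAT3. Phospho-STAT in lysates is quantified by MSD immunoassay, and IC50 is fitted after subtracting unstimulated wells.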

T1 sequence (P40763 whole entry): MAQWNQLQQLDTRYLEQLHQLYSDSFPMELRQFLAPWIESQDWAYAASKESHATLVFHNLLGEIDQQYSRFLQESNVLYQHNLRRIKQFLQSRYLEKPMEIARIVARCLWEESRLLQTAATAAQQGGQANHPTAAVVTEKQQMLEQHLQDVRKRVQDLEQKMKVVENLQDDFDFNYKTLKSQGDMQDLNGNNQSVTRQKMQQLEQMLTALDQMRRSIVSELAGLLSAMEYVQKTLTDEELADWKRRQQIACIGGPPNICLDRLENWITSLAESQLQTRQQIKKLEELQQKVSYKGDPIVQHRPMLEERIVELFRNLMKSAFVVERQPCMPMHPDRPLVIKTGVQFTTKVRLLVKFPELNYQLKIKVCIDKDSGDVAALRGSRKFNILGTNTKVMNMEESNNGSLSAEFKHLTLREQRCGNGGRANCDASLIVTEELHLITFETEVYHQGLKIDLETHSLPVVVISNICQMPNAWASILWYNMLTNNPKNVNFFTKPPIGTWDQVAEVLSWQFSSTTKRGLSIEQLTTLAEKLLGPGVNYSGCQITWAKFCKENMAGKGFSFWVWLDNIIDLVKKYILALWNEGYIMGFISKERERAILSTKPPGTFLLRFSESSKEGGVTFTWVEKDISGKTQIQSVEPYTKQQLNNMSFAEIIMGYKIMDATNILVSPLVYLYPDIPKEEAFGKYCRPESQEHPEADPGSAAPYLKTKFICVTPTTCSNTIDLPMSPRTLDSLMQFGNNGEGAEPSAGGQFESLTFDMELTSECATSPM

Row | SMILES | IC50 [nM]
1 | CCOC(=O)[C@H](CC)NP(=O)(Cc1ccc2sc(C(=O)N[C@H]3CCC[C@H]4CC[C@@H](C(=O)N5CC(c6cccnc6)C5)N4C3=O)cc2c1)Oc1ccccc1 (stereo partly drawn) [Compound 944, ethyl (2S)-2-((((2-(((3S,6S,9aS)-5-oxo-3-(3-(pyridin-3-yl)azetidine-1-carbonyl)octahydro-1H-pyrrolo[1,2-a]azepin-6-yl)carbamoyl)benzo [b]thiophen-5-yl)methyl)(phenoxy)phosphoryl)amino) butanoate] | 100 to 1000
2 | CCCOC(=O)[C@H](COC)NP(=O)(Cc1ccc2sc(C(=O)N[C@H]3CCC[C@H]4CC[C@@H](C(=O)N5CC(c6cnccc6N(C)C)C5)N4C3=O)cc2c1)Oc1ccccc1 (stereo partly drawn) [Compound 1017, propyl N-(((2-(((3S,6S,9aS)-3-(3-(4-(dimethylamino)pyridin-3-yl)azetidine-1-carbonyl)-5-oxooctahydro-1H-pyrrolo[1,2-a]azepin-6-yl)carbamoyl)benzo [b]thiophen-5-yl)methyl)(phenoxy)phosphoryl)-O-methyl-L-serinate] | < 100
3 | CCCC(=O)SCCOP(=O)(OCCSC(=O)CCC)C(F)(F)c1ccc2sc(C(=O)N[C@H]3CCC[C@H]4CC[C@@H](C(=O)N5CC(c6nncn6C)C5)N4C3=O)cc2c1 [Compound 964, S,S′-((((difluoro(2-(((3S,6S,9aS)-3-(3-(4-methyl-4H-1,2,4-triazol-3-yl)azetidine-1-carbonyl)-5-oxooctahydro-1H-pyrrolo[1,2-a]azepin-6-yl)carbamoyl)benzo [b]thiophen-5-yl)methyl)phosphoryl)bis(oxy))bis(ethane-2,1-diyl)) dibutanethioate] | 100 to 1000
4 | CCCOC(=O)[C@H](C)NP(=O)(Cc1ccc2sc(C(=O)N[C@H]3CCC[C@H]4CC[C@@H](C(=O)N5CC(c6cccnc6C(F)F)C5)N4C3=O)cc2c1)Oc1ccccc1 (stereo partly drawn) [Compound 272, propyl (((2-(((3S,6S,9aS)-3-(3-(2-(difluoromethyl)pyridin-3-yl)azetidine-1-carbonyl)-5-oxooctahydro-1H-pyrrolo[1,2-a]azepin-6-yl)carbamoyl)benzo [b]thiophen-5-yl)methyl)(phenoxy)phosphoryl)-L-alaninate] | < 100
5 | CC(C)OC(=O)[C@H](C)NP(=O)(Cc1ccc2sc(C(=O)N[C@H]3CCC[C@H]4CC[C@@H](C(=O)N5CC(c6cccnc6)C5)N4C3=O)cc2c1)N[C@@H](C)C(=O)OC(C)C [Compound 399, diisopropyl 2,2′-((((2-(((3S,6S,9aS)-5-oxo-3-(3-(pyridin-3-yl)azetidine-1-carbonyl)octahydro-1H-pyrrolo[1,2-a]azepin-6-yl)carbamoyl)benzo [b]thiophen-5-yl)methyl)phosphoryl)bis(azanediyl)) (2S,2′S)-dipropionate] | 1000 to 3000
6 | CCCOC(=O)[C@H](C)NP(=O)(Oc1ccccc1)[C@H](F)c1ccc2sc(C(=O)N[C@H]3CCC[C@H]4CC[C@@H](C(=O)N5CC(c6cncnc6N6CC[C@H]6COC)C5)N4C3=O)cc2c1 (stereo partly drawn) [Compound 1018, propyl (((S)-fluoro(2-(((3S,6S,9aS)-3-(3-(4-((S)-2-(methoxymethyl)azetidin-1-yl)pyrimidin-5-yl)azetidine-1-carbonyl)-5-oxooctahydro-1H-pyrrolo[1,2-a]azepin-6-yl)carbamoyl)benzo [b]thiophen-5-yl)methyl)(phenoxy)phosphoryl)-L-alaninate] | < 100

same assay, conditions: STAT3, PBMC, compound 3 hrs, then 10 ng/mL IL-6 for 10 min; Table 115

Row | SMILES | IC50 [nM]
7 | CCCCOC(=O)[C@H](C)NP(=O)(Cc1ccc2sc(C(=O)N[C@H]3CCC[C@H]4CC[C@@H](C(=O)N5CC(c6cccnc6)C5)N4C3=O)cc2c1)Oc1cccc2ccccc12 (stereo partly drawn) [Compound 1004, butyl ((naphthalen-1-yloxy)((2-(((3S,6S,9aS)-5-oxo-3-(3-(pyridin-3-yl)azetidine-1-carbonyl)octahydro-1H-pyrrolo[1,2-a]azepin-6-yl)carbamoyl)benzo [b]thiophen-5-yl)methyl)phosphoryl)-L-alaninate] | 100 to 1000
